Test results reported in PubChem BioAssay AID1963867 (Molecular Pharmacology Branch, DTP, NCI, 2024).
“And” between values parts separate entries of the source, which are not always exact repeats. Equal values may be shown once. The source made the active and inactive calls. Rule for the calls: active = viability on the fitted dose curve at most 10% of control; inactive = the rest.

Tested on: KRAS-mutant PDC tumor spheroid with HUVEC/MSC, viability
Test: Anticancer human tumor 327498-153-R-J2-PDC patient-derived uterine carcinosarcoma cell line growth inhibition [KRAS2]
Settings: for viability, T/C: stronger effect = lower value
In short: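 Combination screen of spheroid viability in tumor-cell co-cultures with endothelial (HUVEC) and mesenchymal stem cell stroma. Each agent was tested in half-log dilutions, topping at clinical Cmax or at 10 microM without a known Cmax.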

[1] = curve of first compound, second compound 0.1 µM
[2] = curve of first compound, second compound 0.316 µM
[3] = curve of first compound, second compound 1 µM
[4] = curve of first compound, second compound 3.16 µM
[5] = curve of first compound, second compound 10 µM
[6] = second compound 0.1 µM, first compound 0.01 µM
[7] = second compound 0.1 µM, first compound 0.0316 µM
[8] = second compound 0.1 µM, first compound 0.1 µM
[9] = second compound 0.316 µM, first compound 0.01 µM
[10] = second compound 0.316 µM, first compound 0.0316 µM
[11] = second compound 0.316 µM, first compound 0.1 µM
[12] = second compound 1 µM, first compound 0.01 µM
[13] = second compound 1 µM, first compound 0.0316 µM
[14] = second compound 1 µM, first compound 0.1 µM
[15] = second compound 3.16 µM, first compound 0.01 µM
[16] = second compound 3.16 µM, first compound 0.0316 µM
[17] = second compound 3.16 µM, first compound 0.1 µM
[18] = second compound 10 µM, first compound 0.01 µM
[19] = second compound 10 µM, first compound 0.0316 µM
[20] = second compound 10 µM, first compound 0.1 µM
[21] = second compound 0.1 µM, first compound 0.316 µM
[22] = second compound 0.1 µM, first compound 1 µM
[23] = second compound 0.1 µM, first compound 3.16 µM
[24] = second compound 0.316 µM, first compound 0.316 µM
[25] = second compound 0.316 µM, first compound 1 µM
[26] = second compound 0.316 µM, first compound 3.16 µM
[27] = second compound 1 µM, first compound 0.316 µM
[28] = second compound 1 µM, first compound 1 µM
[29] = second compound 1 µM, first compound 3.16 µM
[30] = second compound 3.16 µM, first compound 0.316 µM
[31] = second compound 3.16 µM, first compound 1 µM
[32] = second compound 3.16 µM, first compound 3.16 µM
[33] = second compound 10 µM, first compound 0.316 µM
[34] = second compound 10 µM, first compound 1 µM
[35] = second compound 10 µM, first compound 3.16 µM
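Throughout, for IC50: spheroids exposed to agents for seven days before reading.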
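Throughout, for viability, T/C: spheroids exposed to agents for seven days before reading; 100% = DMSO vehicle wells so lower means fewer viable cells.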

Structure (SMILES)	IC50 [1]	IC50 [2]	IC50 [3]	IC50 [4]	IC50 [5]	viability, T/C [6]	viability, T/C [7]	viability, T/C [8]	viability, T/C [9]	viability, T/C [10]	viability, T/C [11]	viability, T/C [12]	viability, T/C [13]	viability, T/C [14]	viability, T/C [15]	viability, T/C [16]	viability, T/C [17]	viability, T/C [18]	viability, T/C [19]	viability, T/C [20]	other results
COc1cc2nc(C)nc(NC(C)c3cc(N)cc(C(F)(F)F)c3)c2cc1OC1CCOC1 (stereo not given)																					outcome (compound 0.316 µM): inactive; viability, T/C (compound 3.16 µM): 65.2% [middle of 17 runs]; IC50 (compound alone, run of 07/12/2021): > 10000 nM and 9500 nM; IC50 (compound alone, run of 07/19/2021): > 10000 nM and 8250 nM and 8160 nM; IC50 (compound alone, run of 07/26/2021): > 10000 nM
CC(C)n1nc(-c2ccc3oc(N)nc3c2)c2c(N)ncnc21 + COc1cc2nc(C)nc(NC(C)c3cc(N)cc(C(F)(F)F)c3)c2cc1OC1CCOC1	4.34 nM	2.29 nM	1.98 nM	0.824 nM	< 0.316 nM	27.3%	10.2%	6.27%	23.3%	8.8%	6.67%	26.3%	8.62%	6.87%	17.1%	7.65%	4.15%	17.4%	3.51%	1.94%	viability, T/C (second compound 0.1 µM, first compound 0.000316 µM): 77.5%; viability, T/C (second compound 0.1 µM, first compound 0.001 µM): 71.7%; viability, T/C (second compound 0.1 µM, first compound 0.00316 µM): 59.1%; viability, T/C (second compound 0.316 µM, first compound 0.000316 µM): 71.5%; viability, T/C (second compound 0.316 µM, first compound 0.001 µM): 60.4%; viability, T/C (second compound 0.316 µM, first compound 0.00316 µM): 46.5%; viability, T/C (second compound 1 µM, first compound 0.000316 µM): 60.2%; viability, T/C (second compound 1 µM, first compound 0.001 µM): 63.7%; viability, T/C (second compound 1 µM, first compound 0.00316 µM): 40.1%; viability, T/C (second compound 3.16 µM, first compound 0.000316 µM): 52.6%; viability, T/C (second compound 3.16 µM, first compound 0.001 µM): 50.1%; viability, T/C (second compound 3.16 µM, first compound 0.00316 µM): 36.1%; viability, T/C (second compound 10 µM, first compound 0.000316 µM): 38.8%; viability, T/C (second compound 10 µM, first compound 0.001 µM): 35.5%; viability, T/C (second compound 10 µM, first compound 0.00316 µM): 23.4%
COC(=O)c1ccc2c(C(=Nc3ccc(N(C)C(=O)CN4CCN(C)CC4)cc3)c3ccccc3)c(O)[nH]c2c1 + C=CC(=O)N1CCN(c2nc(=O)n(-c3c(C)ccnc3C(C)C)c3nc(-c4c(O)cccc4F)c(F)cc23)C(C)C1	68.6 nM	< 31.6 nM	< 31.6 nM	< 31.6 nM	< 31.6 nM		55.6%	47%		48.5%	46.1%		46%	44.4%		42.4%	35%		39%	31.1%	viability, T/C [21]: 33.8%; viability, T/C [22]: 21.5%; viability, T/C [23]: 8.48%; viability, T/C (second compound 0.1 µM, first compound 10 µM): 8.12%; viability, T/C [24]: 31.3%; viability, T/C [25]: 12.5%; viability, T/C [26]: 6.86%; viability, T/C (second compound 0.316 µM, first compound 10 µM): 4.83%; viability, T/C [27]: 27.5%; viability, T/C [28]: 16.6%; viability, T/C [29]: 7.4%; viability, T/C (second compound 1 µM, first compound 10 µM): 3.38%; viability, T/C [30]: 19.1%; viability, T/C [31]: 11.5%; viability, T/C [32]: 6.26%; viability, T/C (second compound 3.16 µM, first compound 10 µM): 4.47%; viability, T/C [33]: 22.9%; viability, T/C [34]: 13.2%; viability, T/C [35]: 3.4%; viability, T/C (second compound 10 µM, first compound 10 µM): 1.04%
CC1COCCN1c1cc(-c2ccnn2C)c2ccnc(-c3ccn[nH]3)c2n1 (stereo not given) + CNCc1ccccc1-c1csc(C(C)Nc2nc(C)nc3cc(OC)c(OC)cc23)c1	23.5 nM	17.9 nM	15 nM	< 10 nM	< 10 nM	80%	39.5%	9.19%	66.6%	33.8%	11.5%	62.9%	26.7%	9.86%	0.09%	0.07%	0.05%	0.13%	0.13%	0.13%	viability, T/C [21]: 5.57%; viability, T/C [22]: 5.53%; viability, T/C [23]: 5.04%; viability, T/C [24]: 5.05%; viability, T/C [25]: 5.87%; viability, T/C [26]: 5.3%; viability, T/C [27]: 4.09%; viability, T/C [28]: 3.98%; viability, T/C [29]: 1.03%; viability, T/C [30]: 0.71%; viability, T/C [31]: 0.03%; viability, T/C [32]: 0.13%; viability, T/C [33]: 0.12%; viability, T/C [34]: 0.12%; viability, T/C [35]: 0.21%
